Results reported in patent US20030190377A1, “Novel use of the extract of processed Panax genus plant and saponin compound isolated therefrom” (Ginseng Science Inc., priority 2002, published 2003).
Values after ≈ are worked out from the molar mass of the structure shown. Like-named read-outs stand apart in the source and are kept apart here.

Tests used:
[1] = tested on: Helicobacter pylori; assay: Inhibitory effect on proliferation of Helicobacter pylori (MIC, Brucella agar); assay type: cell-based
[2] = biological target: H+/K+-ATPase (Rattus norvegicus, UniProt P09626); assay: H+/K+-ATPase activity inhibition test; conditions: for IC50 for H+/K+-ATPase: stomach enzyme, pre-incubated 37° C. 30 minutes, pH 7.4
Sequence of H+/K+-ATPase (P09626 whole entry): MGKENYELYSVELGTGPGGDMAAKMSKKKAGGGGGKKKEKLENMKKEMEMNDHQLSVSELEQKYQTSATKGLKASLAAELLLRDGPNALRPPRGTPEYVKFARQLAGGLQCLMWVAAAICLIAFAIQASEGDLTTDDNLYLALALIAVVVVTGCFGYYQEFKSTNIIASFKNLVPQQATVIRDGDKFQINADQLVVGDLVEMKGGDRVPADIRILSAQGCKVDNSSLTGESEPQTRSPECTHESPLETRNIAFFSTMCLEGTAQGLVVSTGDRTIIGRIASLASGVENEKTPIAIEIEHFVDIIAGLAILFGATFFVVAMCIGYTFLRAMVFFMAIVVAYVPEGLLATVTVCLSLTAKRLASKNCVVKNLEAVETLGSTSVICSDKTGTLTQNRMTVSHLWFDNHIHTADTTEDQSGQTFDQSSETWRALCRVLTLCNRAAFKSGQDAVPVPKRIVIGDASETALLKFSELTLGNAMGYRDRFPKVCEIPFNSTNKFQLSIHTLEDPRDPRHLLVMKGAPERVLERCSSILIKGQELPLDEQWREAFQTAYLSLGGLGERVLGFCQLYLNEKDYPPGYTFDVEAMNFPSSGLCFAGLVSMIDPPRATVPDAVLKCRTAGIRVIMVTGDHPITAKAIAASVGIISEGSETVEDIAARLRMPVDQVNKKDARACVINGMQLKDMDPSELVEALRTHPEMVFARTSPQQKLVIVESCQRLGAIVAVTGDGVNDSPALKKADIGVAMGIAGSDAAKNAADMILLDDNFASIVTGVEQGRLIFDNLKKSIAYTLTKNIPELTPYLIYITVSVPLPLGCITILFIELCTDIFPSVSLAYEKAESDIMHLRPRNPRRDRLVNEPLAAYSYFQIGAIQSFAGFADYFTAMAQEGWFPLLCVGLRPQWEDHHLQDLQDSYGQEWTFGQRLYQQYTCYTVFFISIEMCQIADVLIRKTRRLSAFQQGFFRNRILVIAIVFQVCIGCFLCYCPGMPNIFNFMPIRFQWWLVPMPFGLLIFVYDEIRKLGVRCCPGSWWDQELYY
Sequence of H+/K+-ATPase (P18598 whole entry partner): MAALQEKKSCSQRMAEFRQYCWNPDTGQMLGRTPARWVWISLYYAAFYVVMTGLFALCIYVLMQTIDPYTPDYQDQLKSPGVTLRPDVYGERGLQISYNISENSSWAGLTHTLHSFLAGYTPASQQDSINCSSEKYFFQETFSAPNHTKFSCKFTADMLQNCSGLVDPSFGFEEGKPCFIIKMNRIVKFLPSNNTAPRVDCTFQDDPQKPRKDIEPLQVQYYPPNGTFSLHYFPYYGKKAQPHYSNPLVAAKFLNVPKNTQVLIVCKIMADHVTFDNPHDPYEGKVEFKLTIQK

[3] = H. pylori strain ATCC 43504, 37° C., 3 days
[4] = H. pylori strain Clinical 4, 37° C., 3 days
[5] = H. pylori strain Clinical 82516, 37° C., 3 days
[6] = H. pylori strain Clinical 82548, 37° C., 3 days
[7] = H. pylori strain NCTC 11637, 37° C., 3 days
[8] = H. pylori strain NCTC 11638, 37° C., 3 days

Row | SMILES | MIC ATCC 43504 [1, 3] | MIC Clinical 4 [1, 4] | MIC Clinical 82516 [1, 5] | MIC Clinical 82548 [1, 6] | MIC NCTC 11637 [1, 7] | MIC NCTC 11638 [1, 8] | IC50 for H+/K+-ATPase [2] | also measured
1 | CC(C)=CCC[C@](C)(O)[C@H]1CC[C@]2(C)[C@@H]1[C@H](O)C[C@@H]1[C@@]3(C)CC[C@H](O[C@@H]4O[C@H](CO)[C@@H](O)[C@H](O)[C@H]4O[C@@H]4O[C@H](CO)[C@@H](O)[C@H](O)[C@H]4O)C(C)(C)[C@@H]3CC[C@]12C [20(R)-ginsenoside Rg3] | 200 µg/mL (≈ 255 µM) | 200 µg/mL (≈ 255 µM) | 200 µg/mL (≈ 255 µM) | 200 µg/mL (≈ 255 µM) | 200 µg/mL (≈ 255 µM) | 200 µg/mL (≈ 255 µM) | 700 µg/mL | –
2 | CC(C)=CCC[C@@](C)(O)[C@H]1CC[C@]2(C)[C@@H]1[C@H](O)C[C@@H]1[C@@]3(C)CC[C@H](O[C@@H]4O[C@H](CO)[C@@H](O)[C@H](O)[C@H]4O)C(C)(C)[C@@H]3CC[C@]12C [20(R)-ginsenoside Rh2] | 100 µg/mL (≈ 161 µM) | 100 µg/mL (≈ 161 µM) | 100 µg/mL (≈ 161 µM) | 100 µg/mL (≈ 161 µM) | 100 µg/mL (≈ 161 µM) | 100 µg/mL (≈ 161 µM) | 500 µg/mL | –
3 | CC(C)=CCC[C@@](C)(O)[C@H]1CC[C@]2(C)[C@@H]1[C@H](O)C[C@@H]1[C@@]3(C)CC[C@H](O)C(C)(C)[C@@H]3CC[C@]12C [20(R)-protopanaxadiol] | 50 µg/mL (≈ 109 µM) | 50 µg/mL (≈ 109 µM) | 50 µg/mL (≈ 109 µM) | 50 µg/mL (≈ 109 µM) | 50 µg/mL (≈ 109 µM) | 50 µg/mL (≈ 109 µM) | – | –
4 | CC(C)=CCC[C@](C)(O)[C@H]1CC[C@]2(C)[C@@H]1[C@H](O)C[C@@H]1[C@@]3(C)CC[C@H](O[C@@H]4O[C@H](CO)[C@@H](O)[C@H](O)[C@H]4O[C@@H]4O[C@H](CO)[C@@H](O)[C@H](O)[C@H]4O)C(C)(C)[C@@H]3CC[C@]12C [20(S)-ginsenoside Rg3] | 200 µg/mL (≈ 255 µM) | 200 µg/mL (≈ 255 µM) | 200 µg/mL (≈ 255 µM) | 200 µg/mL (≈ 255 µM) | 200 µg/mL (≈ 255 µM) | 200 µg/mL (≈ 255 µM) | 600 µg/mL | –
5 | CC(C)=CCC[C@](C)(O)[C@H]1CC[C@]2(C)[C@@H]1[C@H](O)C[C@@H]1[C@@]3(C)CC[C@H](O[C@@H]4O[C@H](CO)[C@@H](O)[C@H](O)[C@H]4O)C(C)(C)[C@@H]3CC[C@]12C [20(S)-ginsenoside Rh2] | 100 µg/mL (≈ 161 µM) | 100 µg/mL (≈ 161 µM) | 100 µg/mL (≈ 161 µM) | 100 µg/mL (≈ 161 µM) | 100 µg/mL (≈ 161 µM) | 100 µg/mL (≈ 161 µM) | 500 µg/mL | –
6 | CC(C)=CCC[C@](C)(O)[C@H]1CC[C@]2(C)[C@@H]1[C@H](O)C[C@@H]1[C@@]3(C)CC[C@H](O)C(C)(C)[C@@H]3CC[C@]12C [20(S)-protopanaxadiol] | 50 µg/mL (≈ 109 µM) | 50 µg/mL (≈ 109 µM) | 50 µg/mL (≈ 109 µM) | 50 µg/mL (≈ 109 µM) | 50 µg/mL (≈ 109 µM) | 50 µg/mL (≈ 109 µM) | >1000 µg/mL | inhibiting activity of proliferation of Helicobacter strain ([1]; result in words): potent inhibiting activity
7 | CC(C)=CCC[C@](C)(O[C@@H]1O[C@H](CO)[C@@H](O)[C@H](O)[C@H]1O)[C@H]1CC[C@]2(C)[C@@H]1[C@H](O)C[C@@H]1[C@@]3(C)CC[C@H](O)C(C)(C)[C@@H]3CC[C@]12C [Compound K, reference compound] | >100 µg/mL | >100 µg/mL | >100 µg/mL | >100 µg/mL | >100 µg/mL | >100 µg/mL | >1000 µg/mL | –
8 | CC(C)=CCC[C@](C)(O[C@@H]1O[C@H](CO[C@@H]2O[C@H](CO)[C@@H](O)[C@H](O)[C@H]2O)[C@@H](O)[C@H](O)[C@H]1O)[C@H]1CC[C@]2(C)[C@@H]1[C@H](O)C[C@@H]1[C@@]3(C)CC[C@H](O[C@@H]4O[C@H](CO)[C@@H](O)[C@H](O)[C@H]4O[C@@H]4O[C@H](CO)[C@@H](O)[C@H](O)[C@H]4O)C(C)(C)[C@@H]3CC[C@]12C [Ginsenoside Rb1] | >100 µg/mL | >100 µg/mL | >100 µg/mL | >100 µg/mL | >100 µg/mL | >100 µg/mL | >1000 µg/mL | –
9 | CC(C)=CCC[C@](C)(O[C@@H]1O[C@H](CO[C@@H]2OC[C@H](O)[C@H](O)[C@H]2O)[C@@H](O)[C@H](O)[C@H]1O)[C@H]1CC[C@]2(C)[C@@H]1[C@H](O)C[C@@H]1[C@@]3(C)CC[C@H](O[C@@H]4O[C@H](CO)[C@@H](O)[C@H](O)[C@H]4O[C@@H]4O[C@H](CO)[C@@H](O)[C@H](O)[C@H]4O)C(C)(C)[C@@H]3CC[C@]12C [Ginsenoside Rb2, reference compound] | >100 µg/mL | >100 µg/mL | >100 µg/mL | >100 µg/mL | >100 µg/mL | >100 µg/mL | >1000 µg/mL | –
10 | CC(C)=CCC[C@](C)(O[C@@H]1O[C@H](CO[C@@H]2O[C@@H](CO)[C@H](O)[C@H]2O)[C@@H](O)[C@H](O)[C@H]1O)[C@H]1CC[C@]2(C)[C@@H]1[C@H](O)C[C@@H]1[C@@]3(C)CC[C@H](O[C@@H]4O[C@H](CO)[C@@H](O)[C@H](O)[C@H]4O[C@@H]4O[C@H](CO)[C@@H](O)[C@H](O)[C@H]4O)C(C)(C)[C@@H]3CC[C@]12C [Ginsenoside Rc] | – | – | – | – | – | – | – | MIC ([1]; Helicobacter pylori, 72 h, H. pylori strain Clinical 4, 37° C., 3 days, read-out: MIC Clinical 4): > 100 µg/mL; MIC ([1]; Helicobacter pylori, 72 h, H. pylori strain Clinical 82516, 37° C., 3 days, read-out: MIC Clinical 82516): > 100 µg/mL; MIC ([1]; Helicobacter pylori, 72 h, H. pylori strain Clinical 82548, 37° C., 3 days, read-out: MIC Clinical 82548): > 100 µg/mL; MIC ([1]; Helicobacter pylori, ATCC43504, 72 h, H. pylori strain ATCC 43504, 37° C., 3 days, read-out: MIC ATCC 43504): > 100 µg/mL; MIC ([1]; Helicobacter pylori, NCTC11637, 72 h, H. pylori strain NCTC 11637, 37° C., 3 days, read-out: MIC NCTC 11637): > 100 µg/mL; MIC ([1]; Helicobacter pylori, NCTC11638, 72 h, H. pylori strain NCTC 11638, 37° C., 3 days, read-out: MIC NCTC 11638): > 100 µg/mL; IC50 [2]: > 927 µM
11 | CC(C)=CCC[C@](C)(O)[C@H]1CC[C@]2(C)[C@@H]1[C@H](O)C[C@@H]1[C@@]3(C)CC[C@H](O)C(C)(C)[C@@H]3[C@@H](O[C@@H]3O[C@H](CO)[C@@H](O)[C@H](O)[C@H]3O)C[C@]12C [Ginsenoside Rh1] | >100 µg/mL | >100 µg/mL | >100 µg/mL | >100 µg/mL | >100 µg/mL | >100 µg/mL | >1000 µg/mL | –
12 | COc1ccc2[nH]c([S+]([O-])Cc3ncc(C)c(OC)c3C)nc2c1 (centres unmarked) [Omeprazole, reference compound] | – | – | – | – | – | – | – | IC50 [2]: 57.9 µM
13 | CC(C)=CCC[C@](C)(O)[C@H]1CC[C@]2(C)[C@@H]1[C@H](O)C[C@@H]1[C@@]3(C)CC[C@H](O)C(C)(C)[C@@H]3[C@@H](O)C[C@]12C [Protopanaxatriol] | 50 µg/mL (≈ 105 µM) | 50 µg/mL (≈ 105 µM) | 50 µg/mL (≈ 105 µM) | 50 µg/mL (≈ 105 µM) | 50 µg/mL (≈ 105 µM) | 50 µg/mL (≈ 105 µM) | – | –
14 | CC1(C)CCC[C@](C)([C@H]2CC[C@]3(C)[C@@H]2[C@H](O)C[C@@H]2[C@@]4(C)CC[C@H](O)C(C)(C)[C@@H]4[C@@H](O)C[C@]23C)O1 [panaxatriol] | – | – | – | – | – | – | – | MIC ([1]; Helicobacter pylori, strain not specified, read-out: MIC): 50 µg/mL (≈ 105 µM)
15 | CC(C)=CCC[C@@](C)(O)[C@H]1CC[C@]2(C)[C@@H]1[C@H](O)C[C@@H]1[C@@]3(C)CC[C@H](O)C(C)(C)[C@@H]3CC[C@]12C [protopanaxadiol] | – | – | – | – | – | – | – | MIC ([1]; strain not specified): 50 µg/mL (≈ 109 µM)
